Assay results as given in patent publication US8399495B2, “Talarazole metabolites” (Stiefel Laboratories, Inc., priority 2006, dated 2013).

Key:
[1] = Excretion of radioactivity (mass balance), human; format: in vivo; conditions: male, 0-288, oral 4 mg
Description: (§1) Mouse, rat, dog and human were the species used for the safety evaluations of talarozole. More specifically, the disposition of ^14C-labeled talarozole was examined in mice, rats, dogs and humans after oral administration to provide information regarding the absorption, metabolism and excretion of talarozole.
(§2) Male and female CD-1 mice (19-29 g, n=3/sex/timepoint for blood sampling, n=3/sex for mass balance), Sprague Dawley rats (0.205-0.237 kg, n=3/sex/timepoint for blood sampling, n=3/sex for mass balance) and beagle dogs (7-12 kg, n=3) were given a single oral dose of ^14C-labeled talarozole in 20% hydroxyl propyl B-cyclodextrin at 5 mg/kg. Healthy human male volunteers (76.6-107.9 kg, n=5) were dosed with a single oral dose of 4 mg ^14C-labeled rambazole in ethanol. Blood samples were collected at selected timepoints after dosing and plasma was prepared. Urine and feces were collected for 2, 7 and 8 days. For the human study, up to 288 hours post-dose and semen samples were obtained 2 and 4 hours post-dose. Radioactivity in various matrices were measured by liquid scintillation counting (LSC). Select plasma, urine and fecal samples were subjected to metabolite radioprofiling and characterization, and in the human study, semen samples. Metabolite radioprofiling was accomplished using HPLC with fraction collection followed by solid scintillation counting (Packard TopCount—see representative HPLC run data below). Radioactivity peaks were integrated and the percent distribution of individual metabolites in each sample was determined. Metabolite characterization and identification were accomplished by LC/MS (Finnigan MAT LCQ in positive or negative ESI mode) in conjunction with an appropriate radioactive monitor (RAM). For all species, plasma, urine and fecal samples were pooled across animals and analyzed. Plasma was analyzed at several time-points out to 24 hours. Urine was analyzed over one time-interval (0-24 hours for mouse, 0-48 hours for rat, 0-72 hours for dog, and for in the human study, 0-12, 12-24, 24-48, 0-48 hours. Feces was analyzed over 2-3 time intervals (0-24 and 24-48 hours for mouse and rat; 0-24, 24-48, and 48-72 hours for male dogs; and 24-48, 48-72, and 72-96 hours for female dogs). In the human study, feces were analyzed for 0-48, 48-96, 96-144, 144-192, 192-288, 0-144, 144-288 and 0-288 hours. PK parameters for ^14C-labeled talarozole radioactivity was determined from the mean (mouse and rat) or individual (dog and human) plasma concentration versus time data. PK parameter values were determined by non-compartmental methods using WinNonlin™. • HPLC data for separations described in Example 1: • LC system: Waters 2695 Separations Module • Analytic column: C18 column, 4.6×150 mm, 3 μm • Flow rate: 1.0 mL/min • Mobile phase A: 2% HCOOH in H2O (pH 3.2) • Mobile phase B: CH3CN • Gradient: […]

[2] = Metabolite radioprofiling of plasma, urine and feces, dog; format: in vivo; conditions: for Feces % Dose as the component / Plasma 0-24 h AUC (% Sample) / Plasma 0-24 h AUC of the radioactive component: dog (5 mg/kg) oral 14C-talarozole; for Plasma 0-24 h AUC, total radioactivity: dog (5 mg/kg)
Method: as §2

[3] = Metabolite radioprofiling of plasma, urine and feces, mouse; format: in vivo; conditions: for Feces % Dose as the component / Plasma 0-24 h AUC (% Sample) / Plasma 0-24 h AUC of the radioactive component / Urine % Dose as the component: mouse (5 mg/kg) oral 14C-talarozole; for Urine % Dose as the component: urine 0-24 h; for Plasma 0-24 h AUC, total radioactivity: mouse (5 mg/kg)
Method: as §2

IP-10 = assay: Suppression of IP-10 production by IFNγ-activated human epidermal keratinocytes; format: cell-based
Description: Talarozole Metabolites for Suppression of IP-10 Production by IFNγ-Activated Human Epidermal Keratinocytes
IP-10, a member of the CXC subfamily of chemokines, attracts T-lymphocytes and natural killer cells. […] In particular, epidermal keratinocytes of psoriatic lesions express elevated levels of IP-10. Suppression of IP-10 expression by activated keratinocytes may represent a novel target for therapeutic intervention of inflammatory skin disorders.

[4] = Excretion of radioactivity (mass balance), rat; format: in vivo; conditions: 0-168 h, oral 5 mg/kg; for % in Feces (percent of dose recovered, total radioactivity) / % in Urine (percent of dose recovered, total radioactivity): 5 mg/kg
Description: as §1, §2

[5] = Pharmacokinetics of radioactivity in plasma after oral 14C-labeled talarozole, human; format: in vivo; conditions: male, single oral 4 mg
Description: as §1
Male and female CD-1 mice (19-29 g, n=3/sex/timepoint for blood sampling, n=3/sex for mass balance), Sprague Dawley rats (0.205-0.237 kg, n=3/sex/timepoint for blood sampling, n=3/sex for mass balance) and beagle dogs (7-12 kg, n=3) were given a single oral dose of ^14C-labeled talarozole in 20% hydroxyl propyl B-cyclodextrin at 5 mg/kg. […] Radioactivity in various matrices were measured by liquid scintillation counting (LSC). […] Radioactivity peaks were integrated and the percent distribution of individual metabolites in each sample was determined. […] For all species, plasma, urine and fecal samples were pooled across animals and analyzed. Plasma was analyzed at several time-points out to 24 hours. […] PK parameter values were determined by non-compartmental methods using WinNonlin™. • HPLC data for separations described in Example 1: • LC system: Waters 2695 Separations Module • Analytic column: C18 column, 4.6×150 mm, 3 μm • Flow rate: 1.0 mL/min • Mobile phase A: 2% HCOOH in H2O (pH 3.2) • Mobile phase B: CH3CN • Gradient: […]

[6] = Pharmacokinetics of radioactivity in plasma after oral 14C-labeled talarozole, rat; format: in vivo; conditions: single oral 5 mg/kg; for AUC0-t: 0-48 h
Description: as §1
as §2, with “Metabolite characterization and identification were accomplished by LC/MS (Finnigan MAT LCQ in positive or negative ESI mode) in conjunction with an appropriate radioactive monitor (RAM).” left out

[7] = Pharmacokinetics of radioactivity in plasma after oral 14C-labeled talarozole, dog; format: in vivo; conditions: single oral 5 mg/kg; for AUC0-t: 0-168 h
Description: as §1
as §2, with “Metabolite characterization and identification were accomplished by LC/MS (Finnigan MAT LCQ in positive or negative ESI mode) in conjunction with an appropriate radioactive monitor (RAM).” left out

[8] = Excretion of radioactivity (mass balance), mouse; format: in vivo; conditions: 0-48 h, oral 5 mg/kg; for % in Feces (percent of dose recovered, total radioactivity) / % in Urine (percent of dose recovered, total radioactivity): 5 mg/kg
Description: as §1, §2

[9] = Metabolite radioprofiling of plasma, urine and feces, rat; format: in vivo; conditions: for Feces % Dose as the component / Plasma 0-24 h AUC (% Sample) / Plasma 0-24 h AUC of the radioactive component / Urine % Dose as the component: rat (5 mg/kg) oral 14C-talarozole; for Urine % Dose as the component: urine 0-48 h; for Plasma 0-24 h AUC, total radioactivity: rat (5 mg/kg)
Method: as §2

[10] = Pharmacokinetics of radioactivity in plasma after oral 14C-labeled talarozole, mouse; format: in vivo; conditions: single oral 5 mg/kg; for AUC0-t: 0-48 h
Description: as §1
as §2, with “Metabolite characterization and identification were accomplished by LC/MS (Finnigan MAT LCQ in positive or negative ESI mode) in conjunction with an appropriate radioactive monitor (RAM).” left out

[11] = listed as 14C-labeled talarozole
[12] = female, listed as 14C-Talarozole
[13] = female, listed as 14C-labeled talarozole
[14] = male, listed as 14C-labeled talarozole

Total % Recovered [1]: 87.7% | % in Feces (percent of dose recovered, total radioactivity) ([1]; listed as 14C-Talarozole): 80.36% | % in Urine (percent of dose recovered, total radioactivity) ([1]; listed as 14C-Talarozole): 7.29% | % in Feces (percent of dose recovered, total radioactivity) [1, 11]: 72.2% | % in Urine (percent of dose recovered, total radioactivity) [1, 11]: 7.3% | Feces % Dose as the component ([2]; female): 1.59 % Dose | Plasma 0-24 h AUC (% Sample) ([2]; female): 23.20% | Plasma 0-24 h AUC of the radioactive component ([2]; female): 4228.0 ng·h/g | Feces % Dose as the component ([2]; male): 1.22 % Dose | Plasma 0-24 h AUC (% Sample) ([2]; male): 24.24% | Plasma 0-24 h AUC of the radioactive component ([2]; male): 4132.9 ng·h/g | Plasma 0-24 h AUC, total radioactivity ([2]; female): 18225 ng*hr/g F | Plasma 0-24 h AUC, total radioactivity ([2]; male): 17047 ng·h/g/M | Feces % Dose as the component ([3]; female): 7.04 % Dose | Plasma 0-24 h AUC (% Sample) ([3]; female): 21.48% | Plasma 0-24 h AUC of the radioactive component ([3]; female): 1420.2 ng·h/g | Feces % Dose as the component ([3]; male): 6.11 % Dose | Plasma 0-24 h AUC (% Sample) ([3]; male): 15.15% | Plasma 0-24 h AUC of the radioactive component ([3]; male): 1377.5 ng·h/g | Plasma 0-24 h AUC, total radioactivity ([3]; female): 66113.0 ng*hr/g F | Plasma 0-24 h AUC, total radioactivity ([3]; male): 9092.5 ng·h/g/M | % in Cage Rinse (percent of dose recovered) ([4]; female): 3.88% | Total % Recovered ([4]; female): 95.4% | % in Feces (percent of dose recovered, total radioactivity) [4, 12]: 77.57 F % | % in Urine (percent of dose recovered, total radioactivity) [4, 12]: 10.07 F % | % in Feces (percent of dose recovered, total radioactivity) [4, 13]: 77.5% | % in Urine (percent of dose recovered, total radioactivity) [4, 13]: 10.1% | % in Cage Rinse (percent of dose recovered) ([4]; male): 4.01% | Total % Recovered ([4]; male): 95.2% | % in Feces (percent of dose recovered, total radioactivity) ([4]; male, listed as 14C-Talarozole): 77.53 M % | % in Urine (percent of dose recovered, total radioactivity) ([4]; male, listed as 14C-Talarozole): 6.33 M % | % in Feces (percent of dose recovered, total radioactivity) [4, 14]: 77.5% | % in Urine (percent of dose recovered, total radioactivity) [4, 14]: 6.3% | AUC0-∞ [5]: 301 hr-ng equiv/g | AUC0-t ([5]; 0-48 h): 269 hr-ng equiv/g | AUC0-∞ ([6]; female): 7810 hr-ng equiv/g | AUC0-t ([6]; female): 7670 hr-ng equiv/g | AUC0-∞ ([6]; male): 6960 hr-ng equiv/g | AUC0-t ([6]; male): 6720 hr-ng equiv/g | AUC0-∞ ([7]; female): 21902 hr-ng equiv/g | AUC0-t ([7]; female): 21388 hr-ng equiv/g | AUC0-∞ ([7]; male): 19970 hr-ng equiv/g | AUC0-t ([7]; male): 19555 hr-ng equiv/g | % in Cage Rinse (percent of dose recovered) ([8]; female): 0.8% | Total % Recovered ([8]; female): 95.4% | % in Feces (percent of dose recovered, total radioactivity) [8, 12]: 91.59 F % | % in Urine (percent of dose recovered, total radioactivity) [8, 12]: 2.96 F % | % in Feces (percent of dose recovered, total radioactivity) [8, 13]: 91.6% | % in Cage Rinse (percent of dose recovered) ([8]; male): 4.4% | Total % Recovered ([8]; male): 91.4% | % in Feces (percent of dose recovered, total radioactivity) ([8]; male, listed as 14C-Talarozole): 82.70 M % | % in Urine (percent of dose recovered, total radioactivity) ([8]; male, listed as 14C-Talarozole): 4.27 M % | % in Feces (percent of dose recovered, total radioactivity) [8, 14]: 82.7% | Feces % Dose as the component ([9]; female): 4.60 % Dose | Plasma 0-24 h AUC (% Sample) ([9]; female): 39.17% | Plasma 0-24 h AUC of the radioactive component ([9]; female): 3523.2 ng·h/g | Urine % Dose as the component ([9]; female): 1.90 % Dose | Feces % Dose as the component ([9]; male): 5.34 % Dose | Plasma 0-24 h AUC (% Sample) ([9]; male): 11.05% | Plasma 0-24 h AUC of the radioactive component ([9]; male): 778.38 ng·h/g | Urine % Dose as the component ([9]; male): 0.10 % Dose | Plasma 0-24 h AUC, total radioactivity ([9]; female): 8995.6 ng*hr/g F | Plasma 0-24 h AUC, total radioactivity ([9]; male): 7045.6 ng·h/g/M | AUC0-∞ ([10]; female): 6767 hr-ng equiv/g | AUC0-t ([10]; female): 6632 hr-ng equiv/g | AUC0-∞ ([10]; male): 10276 hr-ng equiv/g | AUC0-t ([10]; male): 10215 hr-ng equiv/g
Compound: CCC(CC)[C@H](c1ccc(Nc2nc3ccccc3s2)cc1)n1cncn1 [Talarozole, (R)—N-[4-[2-ethyl-1-(1H-1,2,4-triazole-1-yl)butyl]phenyl]-2-benzothiazolamine]
Urine % Dose as the component ([3]; female): No unchanged ^14C-labeled talarozole was detected | Urine % Dose as the component ([3]; male): No unchanged ^14C-labeled talarozole was detected | IP-10 expression (IP-10): down regulate dose-dependently
